In assay [1] the target is T1, 5-hydroxytryptamine receptor 1A (Rattus norvegicus, UniProt P19327).
T1 sequence (P19327 whole entry): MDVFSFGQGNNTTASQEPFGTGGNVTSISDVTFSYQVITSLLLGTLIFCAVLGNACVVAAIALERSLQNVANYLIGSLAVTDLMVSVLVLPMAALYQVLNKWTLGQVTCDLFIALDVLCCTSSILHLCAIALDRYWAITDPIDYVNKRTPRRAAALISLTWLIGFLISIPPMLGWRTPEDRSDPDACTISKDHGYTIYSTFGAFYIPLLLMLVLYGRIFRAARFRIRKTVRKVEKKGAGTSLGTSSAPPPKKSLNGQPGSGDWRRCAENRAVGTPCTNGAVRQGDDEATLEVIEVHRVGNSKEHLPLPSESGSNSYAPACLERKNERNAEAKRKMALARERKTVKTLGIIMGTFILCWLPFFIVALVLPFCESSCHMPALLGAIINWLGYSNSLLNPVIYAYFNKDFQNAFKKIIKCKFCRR
Nature of the assay: Binding affinity to the rat 5-hydroxytryptamine 1A receptor.

In assay [2] the target is 5-hydroxytryptamine receptor 7 (Rattus norvegicus, UniProt P32305). The experiment in a line: Binding affinity to the rat 5-hydroxytryptamine 7 receptor.
In assay [3] the target is D(3) dopamine receptor (Rattus norvegicus, UniProt P19020). Nature of the assay: Binding affinity of compound was tested for Dopamine receptor D3.
Assay [4] has as its target D(2) dopamine receptor (Homo sapiens, UniProt P14416). The experiment in a line: Binding affinity of compound was tested for Dopamine receptor D2L.
In assay [5] the target is T2, Adrenergic receptor alpha-1 (Rattus norvegicus, UniProt P15823+P23944+P43140).
T2 sequence (P15823 whole entry): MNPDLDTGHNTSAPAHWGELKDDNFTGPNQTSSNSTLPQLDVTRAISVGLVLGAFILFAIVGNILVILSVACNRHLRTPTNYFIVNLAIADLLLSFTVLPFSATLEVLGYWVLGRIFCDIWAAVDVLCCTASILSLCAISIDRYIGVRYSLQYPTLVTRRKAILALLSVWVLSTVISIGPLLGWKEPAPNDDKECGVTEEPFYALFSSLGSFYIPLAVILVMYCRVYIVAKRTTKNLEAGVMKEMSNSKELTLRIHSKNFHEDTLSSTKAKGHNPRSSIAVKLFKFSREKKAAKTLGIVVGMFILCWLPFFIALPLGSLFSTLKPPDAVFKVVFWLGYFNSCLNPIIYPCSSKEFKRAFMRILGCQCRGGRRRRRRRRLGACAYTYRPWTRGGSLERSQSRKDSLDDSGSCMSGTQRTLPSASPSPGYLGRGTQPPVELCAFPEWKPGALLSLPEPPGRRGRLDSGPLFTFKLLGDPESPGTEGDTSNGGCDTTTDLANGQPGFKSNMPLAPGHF
T2 sequence (P23944 whole entry): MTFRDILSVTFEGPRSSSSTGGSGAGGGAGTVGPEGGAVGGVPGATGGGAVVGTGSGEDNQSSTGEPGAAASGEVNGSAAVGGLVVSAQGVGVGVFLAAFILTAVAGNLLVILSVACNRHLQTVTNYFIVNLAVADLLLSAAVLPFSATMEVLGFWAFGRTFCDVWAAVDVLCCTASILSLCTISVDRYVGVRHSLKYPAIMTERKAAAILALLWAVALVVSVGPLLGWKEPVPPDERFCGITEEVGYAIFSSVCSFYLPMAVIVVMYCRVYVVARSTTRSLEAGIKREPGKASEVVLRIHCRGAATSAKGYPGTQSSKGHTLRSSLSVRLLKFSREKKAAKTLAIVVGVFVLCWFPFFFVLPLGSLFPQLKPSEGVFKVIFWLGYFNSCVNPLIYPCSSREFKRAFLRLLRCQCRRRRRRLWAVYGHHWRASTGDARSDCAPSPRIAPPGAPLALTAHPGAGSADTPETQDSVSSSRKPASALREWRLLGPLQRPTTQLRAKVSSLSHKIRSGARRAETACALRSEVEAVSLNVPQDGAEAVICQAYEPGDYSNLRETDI
T2 sequence (P43140 whole entry): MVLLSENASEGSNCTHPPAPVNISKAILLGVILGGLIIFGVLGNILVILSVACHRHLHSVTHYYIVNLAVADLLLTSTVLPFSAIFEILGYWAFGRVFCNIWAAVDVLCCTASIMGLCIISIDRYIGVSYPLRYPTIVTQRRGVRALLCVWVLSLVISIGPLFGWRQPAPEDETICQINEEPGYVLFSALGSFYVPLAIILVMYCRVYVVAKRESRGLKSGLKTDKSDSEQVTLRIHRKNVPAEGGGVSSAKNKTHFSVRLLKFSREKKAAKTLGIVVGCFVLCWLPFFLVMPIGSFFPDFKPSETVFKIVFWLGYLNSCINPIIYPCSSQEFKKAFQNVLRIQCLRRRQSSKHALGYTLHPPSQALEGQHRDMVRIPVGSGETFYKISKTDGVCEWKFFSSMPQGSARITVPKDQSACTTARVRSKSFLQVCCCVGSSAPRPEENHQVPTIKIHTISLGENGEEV
The experiment in a line: Binding affinity of compound was tested for Alpha-1 adrenergic receptor. The assay is classed as protein assay.

Assay [6] has as its target T3, D(4) dopamine receptor (Homo sapiens, UniProt P21917).
T3 sequence (P21917 whole entry): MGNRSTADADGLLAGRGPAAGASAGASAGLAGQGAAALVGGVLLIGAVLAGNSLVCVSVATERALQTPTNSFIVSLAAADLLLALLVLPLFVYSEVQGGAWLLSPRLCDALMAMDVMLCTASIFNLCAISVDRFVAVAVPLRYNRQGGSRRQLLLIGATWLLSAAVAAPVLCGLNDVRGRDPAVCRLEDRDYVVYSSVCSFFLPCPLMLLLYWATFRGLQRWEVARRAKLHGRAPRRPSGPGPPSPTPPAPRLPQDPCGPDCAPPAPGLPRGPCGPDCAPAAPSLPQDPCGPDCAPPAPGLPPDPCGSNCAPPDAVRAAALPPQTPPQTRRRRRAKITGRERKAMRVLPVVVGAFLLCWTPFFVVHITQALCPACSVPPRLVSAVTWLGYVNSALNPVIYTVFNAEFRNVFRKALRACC
Nature of the assay: Binding affinity of compound was tested for Dopamine receptor D4.

Assay [7] deals with 5-hydroxytryptamine receptor 7 (Rattus norvegicus) (UniProt P32305). As to conditions: Ileum.
The target of assay [8] is 5-hydroxytryptamine receptor 2A (Rattus norvegicus, UniProt P14842). Nature of the assay: Binding affinity of compound was tested for 5-hydroxytryptamine 2A receptor.
Assay [9] concerns 5-hydroxytryptamine receptor 7 (Cavia porcellus). The experiment in a line: Maximal relaxation effect induced by 3 uM compound on substance P stimulated guinea pig ileum with 5-hydroxytryptamine 7 receptor nondesensitization.
Assay [10] shares this test system. The experiment in a line: Maximal relaxation effect induced by 3 uM compound on substance P stimulated guinea pig ileum with 5-hydroxytryptamine 7 receptor desensitization.
In assay [11] the target is 5-hydroxytryptamine receptor 7 (Rattus norvegicus) (UniProt P32305). As to conditions: Ileum. This is another data set of the same source.
Description: Maximal relaxation effect induced by 3 uM compound on substance P stimulated guinea pig ileum with 5-hydroxytryptamine receptor desensitization

The structures appear in SMILES notation. Active and inactive are the calls of the source. The rule behind the calls is not given here. Where only a bound is given, the exact number is not on record here.

Chain of 5-hydroxytryptamine receptor 7 (P32305 whole entry): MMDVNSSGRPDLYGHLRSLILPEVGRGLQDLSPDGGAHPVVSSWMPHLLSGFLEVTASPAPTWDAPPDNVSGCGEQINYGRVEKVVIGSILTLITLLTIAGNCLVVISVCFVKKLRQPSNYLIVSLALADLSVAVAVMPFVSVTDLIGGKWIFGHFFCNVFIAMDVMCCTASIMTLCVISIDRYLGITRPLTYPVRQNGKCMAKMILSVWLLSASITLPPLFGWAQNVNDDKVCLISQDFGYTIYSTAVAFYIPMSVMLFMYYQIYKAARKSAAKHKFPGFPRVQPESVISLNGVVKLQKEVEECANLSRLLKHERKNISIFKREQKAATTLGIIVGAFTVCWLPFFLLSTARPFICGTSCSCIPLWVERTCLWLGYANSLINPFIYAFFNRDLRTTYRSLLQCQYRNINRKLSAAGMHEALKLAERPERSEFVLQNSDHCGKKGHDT
Chain of 5-hydroxytryptamine receptor 2A (P14842 whole entry): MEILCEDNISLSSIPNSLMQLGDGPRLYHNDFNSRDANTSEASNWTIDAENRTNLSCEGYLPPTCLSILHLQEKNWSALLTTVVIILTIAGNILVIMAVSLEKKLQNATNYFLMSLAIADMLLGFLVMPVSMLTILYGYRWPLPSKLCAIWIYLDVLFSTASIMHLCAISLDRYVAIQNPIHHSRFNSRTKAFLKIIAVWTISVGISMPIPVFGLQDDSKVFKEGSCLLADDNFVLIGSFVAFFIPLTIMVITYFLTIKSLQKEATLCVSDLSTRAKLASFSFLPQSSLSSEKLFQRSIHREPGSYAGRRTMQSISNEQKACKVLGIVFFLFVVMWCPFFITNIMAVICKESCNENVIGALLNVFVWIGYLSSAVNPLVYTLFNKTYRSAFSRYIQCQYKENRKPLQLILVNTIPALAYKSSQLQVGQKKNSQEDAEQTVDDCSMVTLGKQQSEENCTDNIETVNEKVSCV
Chain of D(2) dopamine receptor (P14416 whole entry): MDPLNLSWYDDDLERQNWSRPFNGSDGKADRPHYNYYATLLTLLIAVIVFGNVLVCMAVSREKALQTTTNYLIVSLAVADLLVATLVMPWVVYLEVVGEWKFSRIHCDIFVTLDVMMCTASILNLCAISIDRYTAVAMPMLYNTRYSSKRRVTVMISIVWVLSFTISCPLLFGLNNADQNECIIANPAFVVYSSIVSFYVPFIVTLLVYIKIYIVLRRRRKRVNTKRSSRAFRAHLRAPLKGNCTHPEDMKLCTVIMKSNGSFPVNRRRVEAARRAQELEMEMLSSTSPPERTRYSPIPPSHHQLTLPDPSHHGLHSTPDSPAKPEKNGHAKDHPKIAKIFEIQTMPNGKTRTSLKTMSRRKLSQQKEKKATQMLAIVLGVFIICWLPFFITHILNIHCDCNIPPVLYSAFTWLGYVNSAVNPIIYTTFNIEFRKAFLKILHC
Chain of D(3) dopamine receptor (P19020 whole entry): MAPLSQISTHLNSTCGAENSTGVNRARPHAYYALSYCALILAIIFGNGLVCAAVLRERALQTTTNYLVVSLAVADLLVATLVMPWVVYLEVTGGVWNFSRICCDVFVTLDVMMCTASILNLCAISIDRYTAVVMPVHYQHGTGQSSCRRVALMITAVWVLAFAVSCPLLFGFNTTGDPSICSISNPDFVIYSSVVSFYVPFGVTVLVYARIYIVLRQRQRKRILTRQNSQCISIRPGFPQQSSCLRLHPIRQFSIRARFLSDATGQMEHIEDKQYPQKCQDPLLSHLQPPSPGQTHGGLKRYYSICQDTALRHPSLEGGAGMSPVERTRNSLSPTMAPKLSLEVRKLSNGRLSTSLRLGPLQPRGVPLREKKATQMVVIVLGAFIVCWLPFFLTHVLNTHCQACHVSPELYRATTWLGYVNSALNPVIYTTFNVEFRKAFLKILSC
Chain of 5-hydroxytryptamine receptor 7 (Rattus norvegicus) (P32305 whole entry): as the sequence (P32305 whole entry) above

On to `COc1ccccc1N1CCN(CCCCC(=O)c2ccccc2)CC1`, for which the Ki (in general, a dissociation constant, usually derived from enzyme kinetics or from competition with a known ligand) was 7 nM in assay [1] and 43.5 nM in assay [2].
In the same order, the values of `O=C(CCCCN1CCN(c2noc3ccccc23)CC1)c1ccccc1O` are 919 nM and 52 nM.
Consider `COc1ccccc1N1CCN(CCCCCC(=O)c2ccc(O)cc2)CC1`, for which the Ki amounted to 14 nM in [1] and 23.7 nM in assay [2].
In the same order, the values of `COc1ccccc1N1CCN(CCCCCC(=O)c2cccc(O)c2)CC1` are 24 nM and 26.8 nM.
In the same order, the values of `CN1CCN(CCCCCC(=O)c2ccccc2O)CC1` are more than 850 nM and more than 1000 nM.
Turning to `COc1ccccc1C(=O)CCCCCN1CCN(c2noc3ccccc23)CC1`, the Ki was found to be 54.9 nM in assay [3]; 175 nM in assay [1]; 78.1 nM in assay [4]; 0.41 nM in assay [5]; 0.9 nM in assay [2]; 3.94 nM in assay [6]. In assay [8], this compound had a Ki of 9.03 nM. For the same compound, in assay [7], the Relaxation entry was “inactive”.
`O=C(CCCCCN1CCN(c2nc3ccccc3[nH]2)CC1)c1ccccc1O`: the Ki is more than 850 nM in assay [1] and 682 nM in assay [2].
For the compound `O=C(CCCCCN1CCN(c2noc3ccccc23)CC1)c1ccccc1O`, the Ki is 361 nM in assay [3]; 189 nM in assay [1]; 246 nM in assay [4]; 96 nM in assay [5]; 2.93 nM in [2]; 318 nM in assay [6]. In addition, the Ki in [8] is 7.97 nM. For the same compound, the Relaxation in [9] came to 43%. Besides, the Relaxation entry in assay [10] is “inactive”.
Consider `O=C(CCCCCN1CCN(C2CCCCC2)CC1)c1ccccc1O`, for which the Ki was more than 850 nM in assay [1] and more than 800 nM in assay [2].
For `COc1cccc(C(=O)CCCCCN2CCN(c3ccccc3OC)CC2)c1`, the Ki in assay [1] is 3.4 nM; in assay [2], 46 nM.
`O=C(CCCCCN1CCN(c2nc3ccccc3o2)CC1)c1ccccc1O`: the Ki in assay [1] was determined as 1460 nM; in assay [2], 148 nM.
In the case of `O=C(CCCN1CCN(c2noc3ccccc23)CC1)c1ccccc1O`, the Ki in [1] came to 1060 nM; in assay [2] it was 19.5 nM.
Take `O=C(CCCCCN1CCN(c2ccccn2)CC1)c1ccccc1O`: the Ki in assay [1] is 56 nM; in assay [2], 105 nM.
Regarding `COc1ccc2onc(N3CCN(CCCCCC(=O)c4ccccc4O)CC3)c2c1`, the results for the Ki in assay [1] and in assay [2] were 389 nM and 462 nM, respectively.
With `O=C(CCCCCN1CCN(c2cccc(C(F)(F)F)c2)CC1)c1ccccc1O`, the Ki in assay [1] was found to be 282 nM; in assay [2], 384 nM.
In the same order, the values of `COc1cccc(C(=O)CCCN2CCN(c3ccccc3OC)CC2)c1` are 0.78 nM and 109 nM.
For the compound `NCCc1c[nH]c2ccc(C(N)=O)cc12`, in assay [11], the Relaxation result is “inactive”. Moreover, in assay [2], the affinity, expressed as Ki, was 0.51 nM.
For `COc1ccccc1N1CCN(CCCCCC(=O)c2ccccc2O)CC1`, the Ki in [1] and in assay [2] was 5.8 nM each time.
For the compound `COc1ccccc1N1CCN(CCCCCC(=O)c2ccccc2)CC1`, the Ki in [1] came to 6.4 nM; in assay [2], 28.4 nM.
For the compound `COc1ccccc1N1CCN(CCCCC(=O)c2cccc(O)c2)CC1`, the values for the Ki in assay [1] and in assay [2] were 3.7 nM and 15 nM, respectively.
For the compound `O=C(CCCCCN1CCN(c2ccccc2)CC1)c1ccccc1O`, the Ki in assay [1] was 137 nM; in assay [2], 43 nM.
In the same order, the values of `COc1ccccc1N1CCN(CCCCC(=O)c2ccc(O)cc2)CC1` are 20 nM and 59.1 nM.
In the same order, the values of `COc1cccc(C(=O)CCCCN2CCN(c3ccccc3OC)CC2)c1` are 3.4 nM and 85 nM.
In the same order, the values of `COc1ccccc1N1CCN(CCCCC(=O)c2ccccc2O)CC1` are 4.1 nM and 16.4 nM.

Values taken from ChEMBL document CHEMBL1145970 (J Med Chem, 2003).
